Experimental data published in ChEMBL document CHEMBL1201862, “PubChem BioAssay data set” (2004).
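Five compound concentrations were applied to cells in 96-well plates for 48 hours; endpoints were derived by simple linear interpolation of the resulting dose-response curve. GI50 marks 50% less growth.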 Calls of active or inactive are those of the source. Rule as the data show it: active = GI50 up to about 1.1 µM and inactive = higher.

Legend:
Experiment in all cases: inhibition of tumour cell growth, NCI panel, 48 h
786-0 = system: 786-0
CCRF-CEM = system: CCRF-CEM
COLO 205 = system: COLO 205
HCC 2998 = system: HCC 2998
M14 = system: M14
MCF7 = system: MCF7
MDA-MB-231 = system: MDA-MB-231
MDA-MB-435 = system: MDA-MB-435
MDA-N = system: MDA-N
NCI-H460 = system: NCI-H460
OVCAR-8 = system: OVCAR-8
RPMI-8226 = system: RPMI-8226
SF-295 = system: SF-295
SF-539 = system: SF-539
SK-MEL-28 = system: SK-MEL-28
SK-MEL-2 = system: SK-MEL-2
SK-OV-3 = system: SK-OV-3
SR = system: SR
UACC-257 = system: UACC-257
UACC-62 = system: UACC-62

Measured: GI50

CC1Oc2c(c(=O)oc3ccccc23)[C@@]1(C)CC1C[C@H](C)C(=O)O1 (stereo not given in full)
inactive: 786-0 16.4 µM | CCRF-CEM 5.96 µM | COLO 205 32.1 µM | HCC 2998 23.2 µM | M14 20.3 µM | MCF7 34.4 µM | MDA-MB-231 31.1 µM | MDA-MB-435 21.9 µM | MDA-N 19.9 µM | NCI-H460 > 10 µM | OVCAR-8 30.5 µM | RPMI-8226 33.3 µM | SF-295 63 µM | SF-539 25.2 µM | SK-MEL-28 18.7 µM | SK-MEL-2 25.9 µM | SK-OV-3 50.5 µM | SR > 10 µM | UACC-257 35.2 µM | UACC-62 19.1 µM
